The text below walks through data of ChEMBL document CHEMBL1122770, “Quantitative structure-activity relationship of insect juvenile hormone mimetic compounds” (J Med Chem, 1984).

Data set [1] can be described thus: Partition coefficient (logP). Format: physicochemical. To be noted: octanol/water.
In data set [2] the test system is Tenebrio molitor. Put plainly: Juvenile hormone mimetic activity in Tenebrio molitor (yellow mealworm). Format: functional. The arrangement: unit not given here.
Data set [3] relates to Tenebrio molitor. Put plainly: Tested for juvenile hormone mimetic activity in Tenebrio molitor (yellow mealworm) excluding from the analysis for activity against […]). Format: functional.
Data set [4] has as its system Tenebrio molitor. Put plainly: Tested for juvenile hormone mimetic activity in Tenebrio molitor (yellow mealworm) excluding from the analysis for activity against Tenebrio molitor. Format: functional. Set-up: unit not given here.
Data set [5] has as its system Tenebrio molitor. Put plainly: Tested for juvenile hormone mimetic activity in Tenebrio molitor (yellow mealworm) excluding from the analysis for activity against Anopheles aegypti. Format: functional.
Data set [6] relates to Tenebrio molitor. Put plainly: Tested for juvenile hormone mimetic activity in Tenebrio molitor (yellow mealworm) excluding from the analysis for activity against Aedes aegypti, Tenebrio molitor.

As a reminder, the logP is the decadic logarithm of the partition coefficient of the neutral form, usually between octanol and water. Regarding `CCSC(=O)/C=C(C)/C=C/CC(C)CCCC(C)(C)O` (stereo not drawn), the logP in data set [1] (read-out: logP) is 5.89. In the data set with Tenebrio molitor [2], this molecule returned a pI50 of 3.43.
`CCOC(=O)/C=C(C)/C=C/CC(C)CCCC(C)(C)O` (stereo not drawn): the log partition coefficient (logP) in data set [1] (read-out: logP) was 4.65. In addition, in the data set on Tenebrio molitor [3], the pI50 was approximately 0.54 uM pupa-1.
As for `CCNC(=O)OC(C)(C)CCCC(C)C/C=C/C(C)=C/C(=O)OCC` (stereo not drawn), in data set [1] (read-out: logP), the logP amounted to 5.65. Further, the pI50 in the data set on Tenebrio molitor [4] is reported as less than 0.55.
As to `CCNC(=O)/C=C(C)/C=C/CC(C)CCC=C(C)C` (stereo not drawn), the logP in data set [1] (read-out: logP) worked out at 4.69. The same molecule had a pI50 in the data set with Tenebrio molitor [2] of 4.78.
As to `COC(C)(C)CCCC(C)C/C=C/C(C)=C/C(=O)SC(C)C` (stereo not drawn), the logP in data set [1] (read-out: logP) was determined as 7.19. In addition, the pI50 in the data set with Tenebrio molitor [2] is on record as 5.04.
As for `C/C=C/COC(=O)/C=C(C)/C=C/CC(C)CCCC(C)(C)OC` (stereo not drawn), the log partition coefficient (logP) in data set [1] (read-out: logP) is 6.07. Further, the pI50 with Tenebrio molitor [2] came to 2.25.
Consider `CCOC(=O)/C=C(C)/C=C/CC(C)CCC(=O)C(C)C` (stereo not drawn), for which the logP in data set [1] (read-out: logP) was found to be 4.3. The molecule also returned a pI50 with Tenebrio molitor [4] of less than 0.45.
The corresponding values for `CCC(=O)/C=C(C)/C=C/CC(C)CCCC(C)(C)O` (stereo not drawn) are 4.18 and 6.04.
In the case of `CC(/C=C/CC(C)CCCC(C)C)=C\C(=O)OCc1ccccc1` (stereo not drawn), the log partition coefficient (logP) in data set [1] (read-out: logP) came out at 7.87. The molecule further registered a pI50 with Tenebrio molitor [4] of less than 0.52.
`CCOC(=O)/C=C(C)/C=C/CC(C)CCC1OC1(C)C` (stereo not drawn): in data set [1] (read-out: logP), the logP came to 4.76. In addition, the pI50 in the data set with Tenebrio molitor [2] is reported as 2.22.
With `CCNC(=O)/C=C(C)/C=C/CC(C)CCCC(C)(C)O` (stereo not drawn), in data set [1] (read-out: logP), the logP worked out at 3.15. This molecule had a pI50 with Tenebrio molitor [5] of 5.22 uM pupa-1.
With `C#CCCOC(=O)/C=C(C)/C=C/CC(C)CCCC(C)(C)OC` (stereo not drawn), the logP in data set [1] (read-out: logP) was 5.2. Further, the pI50 with Tenebrio molitor [4] is recorded as less than 1.11.
As for `CC(/C=C/CC(C)CCCC(C)C)=C\C(=O)C1N=N1` (stereo not drawn), the pI50 in the data set with Tenebrio molitor [6] is given as 5.15 uM pupa-1.
Turning to `CC(/C=C/CC(C)CCCC(C)C)=C\C(=O)CC(C)C` (stereo not drawn), in data set [1] (read-out: logP), the logP came out at 7.22. In the data set on Tenebrio molitor [2], this molecule had a pI50 of 3.14.
Regarding `CCOC(=O)/C=C(C)/C=C/CC(C)CCC(SCC)C(C)C` (stereo not drawn), the logP in data set [1] (read-out: logP) turned out to be 6.9. For the same molecule, the pI50 in the data set on Tenebrio molitor [4] came out at 1.51.
Turning to `CC(/C=C/CC(C)CCCC(C)C)=C\C(=O)O` (stereo not drawn), in data set [1] (read-out: logP), the logP came to 5.95. The same molecule had a pI50 in the data set with Tenebrio molitor [4] of less than 0.45.
`COC(CCC(C)C/C=C/C(C)=C/C(=O)OC(C)C)C(C)(C)OC` (stereo not drawn): the logP in data set [1] (read-out: logP) is 4.75. In the data set on Tenebrio molitor [2], this molecule showed a pI50 of 3.88.
As for `CC(/C=C/CC(C)CCCC(C)C)=C\C(=O)OC(C)(C)C` (stereo not drawn), the lipophilicity (logP) in data set [1] (read-out: logP) amounted to 7.56. Further, in the data set on Tenebrio molitor [6], the pI50 amounted to 1.01 uM pupa-1.
Turning to `CCOC(=O)/C=C(C)/C=C/CC(C)CCC(O)C(C)C` (stereo not drawn), the logP in data set [1] (read-out: logP) stood at 4.65. This molecule also showed a pI50 in the data set with Tenebrio molitor [4] of less than 0.45.
With `CCNC(=O)/C=C(C)/C=C/CC(C)CCCC(C)(C)OC` (stereo not drawn), the logP in data set [1] (read-out: logP) turned out to be 4.04. The same molecule had a pI50 in the data set on Tenebrio molitor [4] of 5.95.
In the case of `CCOC(=O)/C=C(C)/C=C/CC(C)CCCC(C)(C)OC` (stereo not drawn), the lipophilicity (logP) in data set [1] (read-out: logP) stood at 5.54. Further, the pI50 with Tenebrio molitor [2] is 1.92.
With `CCCC(=O)/C=C(C)/C=C/CC(C)CCCC(C)(C)OC` (stereo not drawn), the logP in data set [1] (read-out: logP) came to 5.61. The pI50 in the data set on Tenebrio molitor [2] amounted to 5.73.
Consider `COC(C)(C)CCCC(C)C/C=C/C(C)=C/C(=O)C1N=N1` (stereo not drawn), for which the pI50 in the data set with Tenebrio molitor [6] is given as 6.12 uM pupa-1.
For the molecule `CCC(=O)/C=C(C)/C=C/CC(C)CCCC(C)C` (stereo in doubt; 83), in data set [1] (read-out: logP), the logP was 6.27. This molecule also returned a pI50 in the data set with Tenebrio molitor [2] of 4.89.
Molecule `CCC(=O)/C=C(C)/C=C/CC(C)CCCC(C)C` (stereo in doubt; 101) came in with a logP in data set [1] of 6.68. For the same molecule, in the data set on Tenebrio molitor [2], the pI50 is given as 4.1.
